Data taken from patent EP4786487A1, “PEPTIDE” (Peptidream Inc, priority 2023, dated 2025).
Positions of bridges follow the written chain, without caps; N, C: chain ends. Non-standard residues stand in square brackets, D forms with d. Residues, ends and D or L forms follow the SMILES beside them. Phe(4-COOH) = N[C@@H](Cc1ccc(C(=O)O)cc1)C(=O)O; Trp(7-aza) = N[C@@H](Cc1c[nH]c2ncccc12)C(=O)O; Gly(N(CH2)3COOH) = O=C(O)CCCNCC(=O)O; NMeF = CN[C@@H](Cc1ccccc1)C(=O)O; Gly(N(CH2)3NH2) = NCCCNCC(=O)O; NMeA = CN[C@@H](C)C(=O)O; Dap = NC[C@H](N)C(=O)O; Sar = CNCC(=O)O

Experiments:
[1] = biological target: T1, GDF-11 (Homo sapiens, UniProt O95390); test: HepG2 reporter gene assay, Evaluation Procedure (2): 2-concentrations assay, GDF-11 inhibition; type: cell-based; settings: GDF-11 10 ng/mL; for inhibition at 0.03 µM: HepG2, peptide 30nM, read-out: GDF11 Inhibition 30nM; for inhibition at 0.1 µM: HepG2, peptide 100nM, read-out: GDF11 Inhibition 100nM
T1 construct: purchased R&D systems 1958-GD-G8/CF
T1 sequence (O95390 299-407): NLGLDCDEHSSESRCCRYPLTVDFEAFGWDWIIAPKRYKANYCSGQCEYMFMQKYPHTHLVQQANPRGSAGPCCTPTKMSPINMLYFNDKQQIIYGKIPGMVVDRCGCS
Experimental: (§1) The pGL3(CAGA)12-luc plasmid, namely a pGL3 vector (E1751, Promega) having a luciferase gene inserted downstream of a promoter sequence with 12 CAGA repeats attached, was transfected into HepG2 cell line (HB-8065, ATCC). The culture of HepG2 cell line (HB-8065, ATCC) was performed as in the Evaluation Procedure (1).
(§2) Myostatin (788-G8/CF, R&D systems) or GDF-11 (1958-GD-G8/CF, R&D systems) was added at a final concentration of 10 ng/mL. […] At this time, blank wells, in which neither myostatin, GDF-11, nor each peptide was added, were also prepared and incubated in a CO2 incubator (37°C, 5% CO2) for 20 to 24 hours.
(§3) The medium containing the cells was removed, and a mixture containing PBS (14190144, Thermo) and a chromogenic substrate One-Glo Luciferase Assay System (E6120, Promega) at a ratio of 1:1 was added to each well at 100 µL/well. This was stirred with a plate shaker for 5 min and transferred to a 384-well plate (3570, Corning) at a volume of 20 µL/well.
(§4) The plate was centrifuged at 1,000 × g for 1 min and the luminescence signal (700 nm luminescence) was measured using a plate reader (Envision 2104, PerkinElmer). Based on the measurement results, the inhibition rate at each peptide concentration was calculated. […]

[2] = biological target: T2, Myostatin (Homo sapiens, UniProt O14793); test: HepG2 reporter gene assay, Evaluation Procedure (2): 2-concentrations assay, myostatin inhibition; type: cell-based; settings: Myostatin 10 ng/mL, HepG2; for inhibition at 0.03 µM: peptide 30nM, read-out: Myostatin Inhibition 30nM; for inhibition at 0.1 µM: peptide 100nM, read-out: Myostatin Inhibition 100nM
T2 construct: active myostatin (also called mature myostatin) is a homodimer consisting of two C-terminal growth factor domains; purchased R&D systems 788-G8/CF
T2 sequence (O14793 267-375): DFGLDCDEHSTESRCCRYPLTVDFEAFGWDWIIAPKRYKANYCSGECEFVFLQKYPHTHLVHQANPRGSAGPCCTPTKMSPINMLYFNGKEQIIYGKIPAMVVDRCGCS
Experimental: as §1, §2, §3, §4

| inhibition at 0.03 µM [1] [%] | inhibition at 0.1 µM [1] [%] | inhibition at 0.03 µM [2] [%] | inhibition at 0.1 µM [2] [%] | SMILES |
| --- | --- | --- | --- | --- |
| 0 | 3 | 50 | 82 | CC[C@H](C)[C@@H]1NC(=O)[C@H](Cc2ccccc2)N(C)C(=O)[C@H](Cc2ccc(O)cc2)NC(=O)[C@H](Cc2c[nH]c3ccccc23)NC(=O)[C@H](CCCNC(=N)N)NC(=O)[C@H](C)NC(=O)CSC[C@@H](C(=O)N[C@H](CCC(=O)O)C(N)=O)NC(=O)[C@H](Cc2ccccc2)N(C)C(=O)[C@H](C)N(C)C(=O)[C@H](CC(C)C)NC(=O)[C@H](Cc2ccccc2)N(C)C(=O)[C@H](CCCNC(=N)N)NC(=O)[C@H](Cc2ccc(O)cc2)NC(=O)[C@H](Cc2ccc(O)cc2)NC(=O)CN(C)C1=O [Myostatin_000099_16de] ({CH2CO}-ARWY[NMeF]I[Sar]YYR[NMeF]L[NMeA][NMeF]C[dE]-NH2; thioether N-15) |
| 0 | 0 | 40 | 65 | CC[C@H](C)[C@@H]1NC(=O)[C@H](Cc2ccccc2)N(C)C(=O)[C@H](Cc2ccc(O)cc2)NC(=O)[C@H](Cc2c[nH]c3ccccc23)NC(=O)[C@H](C)NC(=O)CN(CCCC(=O)O)C(=O)CSC[C@H](C(=O)O)NC(=O)[C@H](Cc2ccccc2)N(C)C(=O)[C@H](C)N(C)C(=O)[C@H](CC(C)C)NC(=O)[C@H](Cc2ccccc2)N(C)C(=O)[C@H](CCCNC(=N)N)NC(=O)[C@H](Cc2ccc(O)cc2)NC(=O)[C@H](Cc2ccc(C(=O)O)cc2)NC(=O)CN(C)C1=O [Myostatin_99_Variant_06] ({CH2CO}-[Gly(N(CH2)3COOH)]AWY[NMeF]I[Sar][Phe(4-COOH)]YR[NMeF]L[NMeA][NMeF][dC]-OH; thioether N-15) |
| 7 | 22 | 72 | 92 | CC[C@H](C)[C@@H]1NC(=O)[C@H](Cc2ccccc2)N(C)C(=O)[C@H](Cc2ccc(O)cc2)NC(=O)[C@H](Cc2c[nH]c3ccccc23)NC(=O)[C@H](CN)NC(=O)[C@H](C)NC(=O)CSC[C@H](C(=O)N[C@@H](CN)C(N)=O)NC(=O)[C@H](Cc2ccccc2)N(C)C(=O)[C@H](C)N(C)C(=O)[C@H](CC(C)C)NC(=O)[C@H](Cc2ccccc2)N(C)C(=O)[C@H](CCCNC(=N)N)NC(=O)[C@H](Cc2ccc(O)cc2)NC(=O)[C@H](Cc2ccc(O)cc2)NC(=O)CN(C)C1=O [Myostatin_99_Variant_08] ({CH2CO}-A[Dap]WY[NMeF]I[Sar]YYR[NMeF]L[NMeA][NMeF][dC][Dap]-NH2; thioether N-15) |
| 0 | 11 | 65 | 90 | CC[C@H](C)[C@@H]1NC(=O)[C@H](Cc2ccccc2)N(C)C(=O)[C@H](Cc2ccc(O)cc2)NC(=O)[C@H](Cc2c[nH]c3ccccc23)NC(=O)[C@H](C)NC(=O)CN(CCCN)C(=O)CSC[C@H](C(=O)N[C@@H](CN)C(N)=O)NC(=O)[C@H](Cc2ccccc2)N(C)C(=O)[C@H](C)N(C)C(=O)[C@H](CC(C)C)NC(=O)[C@H](Cc2ccccc2)N(C)C(=O)[C@H](CCCNC(=N)N)NC(=O)[C@H](Cc2ccc(O)cc2)NC(=O)[C@H](Cc2ccc(O)cc2)NC(=O)CN(C)C1=O [Myostatin_99_Variant_09] ({CH2CO}-[Gly(N(CH2)3NH2)]AWY[NMeF]I[Sar]YYR[NMeF]L[NMeA][NMeF][dC][Dap]-NH2; thioether N-15) |
| 11 | 29 | 60 | 89 | CC[C@H](C)[C@@H]1NC(=O)[C@H](Cc2ccccc2)N(C)C(=O)[C@H](Cc2ccc(O)cc2)NC(=O)[C@H](Cc2c[nH]c3ccccc23)NC(=O)[C@H](CN)NC(=O)[C@H](C)NC(=O)CSC[C@H](C(=O)N[C@@H](CN)C(=O)N[C@@H](CN)C(N)=O)NC(=O)[C@H](Cc2ccccc2)N(C)C(=O)[C@H](C)N(C)C(=O)[C@H](CC(C)C)NC(=O)[C@H](Cc2ccccc2)N(C)C(=O)[C@H](CCCNC(=N)N)NC(=O)[C@H](Cc2ccc(O)cc2)NC(=O)[C@H](Cc2ccc(O)cc2)NC(=O)CN(C)C1=O [Myostatin_99_Variant_10] ({CH2CO}-A[Dap]WY[NMeF]I[Sar]YYR[NMeF]L[NMeA][NMeF][dC][Dap][Dap]-NH2; thioether N-15) |
| 22 | 26 | 75 | 94 | CC[C@H](C)[C@@H]1NC(=O)[C@H](Cc2ccccc2)N(C)C(=O)[C@H](Cc2ccc(O)cc2)NC(=O)[C@H](Cc2c[nH]c3ccccc23)NC(=O)[C@H](C)NC(=O)[C@H](C)NC(=O)CSC[C@H](C(=O)N[C@@H](CN)C(N)=O)NC(=O)[C@H](Cc2ccccc2)N(C)C(=O)[C@H](C)N(C)C(=O)[C@H](CC(C)C)NC(=O)[C@H](Cc2ccccc2)N(C)C(=O)[C@H](CCCNC(=N)N)NC(=O)[C@H](Cc2ccc(O)cc2)NC(=O)[C@H](CCCCN)NC(=O)CN(C)C1=O [Myostatin_99_Variant_11] ({CH2CO}-AAWY[NMeF]I[Sar]KYR[NMeF]L[NMeA][NMeF][dC][Dap]-NH2; thioether N-15) |
| 8 | 12 | 51 | 76 | CC[C@H](C)[C@@H]1NC(=O)[C@H](Cc2ccccc2)N(C)C(=O)[C@H](Cc2ccc(O)cc2)NC(=O)[C@H](Cc2c[nH]c3ccccc23)NC(=O)[C@H](CN)NC(=O)CN(CCCN)C(=O)CSC[C@H](C(N)=O)NC(=O)[C@H](Cc2ccccc2)N(C)C(=O)[C@H](C)N(C)C(=O)[C@H](CC(C)C)NC(=O)[C@H](Cc2ccccc2)N(C)C(=O)[C@H](CCCNC(=N)N)NC(=O)[C@H](Cc2ccc(O)cc2)NC(=O)[C@H](Cc2ccc(O)cc2)NC(=O)CN(C)C1=O [Myostatin_99_Variant_13] ({CH2CO}-[Gly(N(CH2)3NH2)][Dap]WY[NMeF]I[Sar]YYR[NMeF]L[NMeA][NMeF][dC]-NH2; thioether N-15) |
| 0 | 1 | 41 | 73 | CC[C@H](C)[C@@H]1NC(=O)[C@H](Cc2ccccc2)N(C)C(=O)[C@H](Cc2ccc(O)cc2)NC(=O)[C@H](Cc2c[nH]c3ncccc23)NC(=O)[C@H](C)NC(=O)CN(CCCC(=O)O)C(=O)CSC[C@H](C(N)=O)NC(=O)[C@H](Cc2ccccc2)N(C)C(=O)[C@H](C)N(C)C(=O)[C@H](CC(C)C)NC(=O)[C@H](Cc2ccccc2)N(C)C(=O)[C@H](CCCNC(=N)N)NC(=O)[C@H](Cc2ccc(C(=O)O)cc2)NC(=O)[C@H](Cc2ccc(O)cc2)NC(=O)CN(C)C1=O [Myostatin_99_Variant_14] ({CH2CO}-[Gly(N(CH2)3COOH)]A[Trp(7-aza)]Y[NMeF]I[Sar]Y[Phe(4-COOH)]R[NMeF]L[NMeA][NMeF][dC]-NH2; thioether N-15) |
| 0 | 0 | 54 | 84 | CC[C@H](C)[C@@H]1NC(=O)[C@H](Cc2ccccc2)N(C)C(=O)[C@H](Cc2ccc(O)cc2)NC(=O)[C@H](Cc2c[nH]c3ccccc23)NC(=O)[C@H](C)NC(=O)CN(CCCC(=O)O)C(=O)CSC[C@H](C(N)=O)NC(=O)[C@H](Cc2ccccc2)N(C)C(=O)[C@H](C)N(C)C(=O)[C@H](CC(C)C)NC(=O)[C@H](Cc2ccccc2)N(C)C(=O)[C@H](CCCNC(=N)N)NC(=O)[C@H](Cc2ccc(C(=O)O)cc2)NC(=O)[C@H](Cc2ccc(O)cc2)NC(=O)[C@H](C)N(C)C1=O [Myostatin_99_Variant_15] ({CH2CO}-[Gly(N(CH2)3COOH)]AWY[NMeF]I[NMeA]Y[Phe(4-COOH)]R[NMeF]L[NMeA][NMeF][dC]-NH2; thioether N-15) |
